Assay results taken from US5162320A, “1,4-bis(alkylamino)-2,3-diaza-anthracene-9,10-diones” (Boehringer Biochemia Robin S.p.A., priority 1989, dated 1992).
Like-named read-outs stand apart in the source and are kept apart here.

Assays:
[1] = tested on: human cervix epithelioid carcinoma cell line; experiment: M.T.T. assay in vitro, human cervix epithelioid carcinoma; type: cell-based
Procedure: (§1) The antitumor activity of compounds of the present invention was evaluated by "in vitro" M.T.T. assay (T. Mosmann, J. Immunol. Meth. 65 : 55-63, 1983) on human tumor cell lines. M.T.T. assay was chosen according to N.C.I. screening program for new anticancer drugs (Ad hoc review committee proceedings for N.C.I. "in vitro"--"in vivo" Disease oriented Screening project. N.I.H., Bethesda, Md. Dec.8-9, 1986).
Against the same human cervix epithelioid carcinoma cell line the compounds (1) and (2) show ID50 of 1×10^-9 M and 2×10^-10 M, respectively.

[2] = tested on: human melanoma xenographt; experiment: M.T.T. assay in vitro, human melanoma; type: cell-based
Procedure: as §1

[3] = intraperitoneal, non-tumor bearing animals; cited from earlier work
[4] = human, in vivo; cited from earlier work
[5] = tested on: human colon adenocarcinoma; experiment: M.T.T. assay in vitro, human colon adenocarcinoma; type: cell-based; conditions: human colon adenocarcinoma xenographt, read-out: ID50 (the source's name)
Procedure: as §1

[6] = human cervix epithelioid carcinoma
[7] = human cervix epithelioid carcinoma, in vitro, read-out: ID50 (the source's name)
[8] = human melanoma xenographt, M.T.T. assay, read-out: ID50 (the source's name)

| SMILES | IC50 [1, 7] [nM] | cardiotoxicity [4] | IC50 [2, 8] [nM] | IC50 [5] [nM] | further results |
| --- | --- | --- | --- | --- | --- |
| Nc1nnc(NCCNCCO)c2c1C(=O)c1ccccc1C2=O [Compound 5, 1-[N-(2-(2-hydroxyethylamino)ethyl)amino]-4-amino-2,3-diaza-anthracene-9,10-dione] | 3 | – | – | – | activity compared with ametantrone [1, 6]: definitely more active than ametantrone; activity compared with mitoxantrone [1, 6]: as active as mitoxantrone |
| O=C1c2ccccc2C(=O)c2c(NCCNCCO)ccc(NCCNCCO)c21 [ametantrone, 1,4-bis[(2-(2-hydroxyethylamino)ethyl)amino]anthracene-9,10-dione] | – | some cardiotoxicity | – | – | IC50 ([2]; Homo sapiens, read-out: ID50): 20000 nM; delayed lethality [3]: not observed; IC50 ([1]; Homo sapiens, read-out: ID50): 50000 nM |
| Nc1nnc(NCCCO)c2c1C(=O)c1ccccc1C2=O [Compound 4, 1-[N-(3-hydroxypropyl)amino]-4-amino-2,3-diaza-anthracene-9,10-dione] | – | – | 1 | – | – |
| O=C1c2ccccc2C(=O)c2c(NCCCO)nnc(NCCCO)c21 [Compound 3, 1,4-bis[N-(3-hydroxypropyl)amino]-2,3-diaza-anthracene-9,10-dione] | – | – | 2 | – | – |
| COc1cccc2c1C(=O)c1c(O)c3c(c(O)c1C2=O)C[C@@](O)(C(=O)CO)C[C@@H]3O[C@H]1C[C@H](N)[C@H](O)[C@H](C)O1 [doxorubicin] | – | severe dose-related cardiotoxicity | – | – | toxic side effects [4]: nausea, vomiting and alopecia |
| O=C1c2c(O)ccc(O)c2C(=O)c2c(NCCNCCO)ccc(NCCNCCO)c21 [mitoxantrone, 5,8-dihydroxy-1,4-bis[(2-(2-hydroxyethylamino)ethyl)amino]anthracene-9,10-dione] | 5 | some clinical cardiotoxicity | 1 | 100 | delayed lethality [3]: a delayed lethality; major hematological toxicities [4]: leukopenia, neutropenia and bone marrow aplasia; toxic side effects [4]: by far lower than those resulting from doxorubicin |
| CN(C)CCNc1nnc(NCCN(C)C)c2c1C(=O)c1ccccc1C2=O [Compound 1, 1,4-bis[N-(2-dimethylaminoethyl)amino]-2,3-diaza-anthracene-9,10-dione] | 1 | – | 1 | 10 | – |
| OCCCNc1nnc(NCCCO)c2cc3ccccc3cc12 [1,4-bis[N-(3-hydroxypropyl)amino]-2,3-diaza-anthracene] | – | – | 500000 | – | – |
| CN(C)CCNc1nnc(N)c2c1C(=O)c1ccccc1C2=O [Compound 2, 1-[N-(2-dimethylaminoethyl)amino]-4-amino-2,3-diaza-anthracene9,10-dione] | 0.2 | – | 0.1 | 1 | – |
